Results reported in patent publication US20210038668A1, “TRADITIONAL CHINESE MEDICINE COMPOSITION FOR PREVENTING AND/OR TREATING ISCHEMIC REPERFUSION INJURY” (TASLY PHARMACEUTICAL GROUP CO., LTD., priority 2018, published 2021).

Key:
[1] = test system: brain tissue (blood brain barrier leakage); experiment: Evens Blue leakage in brain tissue; format: in vivo, C57BL/6 mice; settings: 24 h after administration; method: microgram Evens Blue per gram brain tissue; tPA 10 mg/kg alone; T541 20 mg/kg + tPA 10 mg/kg
Method: Evens Blue leakage: after reperfused for 21 hours, mice were slowly injected an Evens Blue dye (2%, 4 ml/kg) dissolving in normal saline via femoral vein. 3 hours later, mice were perfused 15-20 ml of normal saline till auricula dextra flows colourless liquid, then the brain was immediately separated and immobilized in a 3% paraformaldehyde for 3 hours, then taken out, the brain was cut into 5 slices and shoot; left and right brain was separated and respectively weighed. Left and right brain was respectively added to an EP tube containing 1 ml of 50% trichloroacetic acid, homogenated and centrifuged to obtain the supernatant. An Evens Blue standard was prepared and the content of Evens Blue was detected by a multimode reader (exciting light: 620 nm, emitting light: 680 nm). The content of Evens Blue was denoted by the microgram of Evens Blue in per gram of brain tissue.

mitochondrial complex I = experiment: Mitochondrial complex I activity in brain tissue; format: in vivo, C57BL/6 mice; settings: brain tissue 24 hours after administration; tPA 10 mg/kg alone or + T541 20 mg/kg or ingredients at Table 7 doses
Text: To compare the therapeutical effect on reperfusion injury caused by tPA thrombolysis between the traditional Chinese medicinal composition of the present invention and each ingredient (total saponins of Astragalus, the experiment was divided into the following group (tPA is combined with T541, individual ingredient thereof and compatibility of any two ingredients) specifically as follows: tPA+total saponins of Astragalus (tPA+HQ), tPA+ salvianolic acids (tPA+DS), tPA+Panax notoginseng saponins (tPA+SQ), tPA+ total saponins of Astragalus+salvianolic acids (tPA+HQ+DS), tPA+ total saponins of Astragalus+Panax notoginseng saponins (tPA+HQ+SQ), tPA+ salvianolic acids+Panax notoginseng saponins (tPA+DS+SQ) and tPA+T541. Normal saline served as an isovolumetric control. The usage number in each group is 6.
ELISA adsorption kit was used to measure the change on the content of MDA, 8-hydroxyl-2′-deoxyguanosine (8-OHdG), adenosine triphosphate (ATP), adenosine diphosphate (ADP) and adenosine monophosphate (AMP) in the penumbra field of brain tissue cortex of the mode, and the change on the activity of mitochondrial complexes I, II, IV and V. 6 samples were used to repeat the independent experiment for at least three times for each group of data.

Bcl-2 = experiment: Western blotting of Bcl-2, endothelial cells after hypoxia/reoxygenation; format: cell-based; settings: rat brain endothelial cells, hypoxia 4.5 h/reoxygenation 3 h; tPA 20 mcg/ml alone (model group); T541 400 mcg/ml + tPA 20 mcg/ml
Text: Establishment of rat brain endothelial cell H/R model: rat brain endothelial cells were purchased from ATCC, and then subcultured to 5-6 generations in normal conditions for further experiment. […]

Laminin = experiment: Western blotting of Laminin, basement membrane; format: in vivo, C57BL/6 mice; settings: brain tissue 24 hours after administration, sham = 1.00; tPA 10 mg/kg alone; T541 20 mg/kg + tPA 10 mg/kg
Method: After reperfused for 24 hours, mice were perfused by normal saline; Western blotting analysis was conducted to the penumbra field of infarcted right cerebral cortex. After perfused, mice brain tissue was taken out; cerebellum and prefrontal lobe were cut off; the brain tissue of right brain close to 1 cm of the central joint of left and right hemispheres along the sagittal view; infarcted penumbra field of the rest tissues was cut off along an 45° angle; the cerebral cortex of the penumbra field was peeled off and preserved at low temperature. Right cerebral cortex was taken and added 1×RIPA lysate and a Cocktail protease inhibitor (1:100, Cell Signaling Technology, US) for full pyrolysis and ultrasonic treatment, and then 17000 g were centrifuged for 30 minutes. Supernatant was taken and added 5×loading buffer by volume, boiled for 20 minutes in boiling water, and then preserved at −80° C. Excessive supernatant was taken out and quantified by a BCA protein quantification liquor (ThermoScientific, US) to measure absorbance value at 560 nm of ELIASA and to calculate the protein concentration according to a standard curve. […] The density of electrophoretic strips was analyzed by an image analysis software Quantityone. […]

Substance: tPA: tissue-type plasminogen activator (tPA) for thrombolysis
- Evens Blue leakage [1]: 17.55 ± 1.23
- Complex I activity (mitochondrial complex I): 1.75 ± 0.14
- Bcl-2 (Bcl-2): 0.69 ± 0.12
- Laminin content (Laminin): 0.47 ± 0.06
